Test results taken from PubChem BioAssay AID2060907 (Molecular Pharmacology Branch, DTP, NCI, 2025).

Tested on: 388556-164-R-J1-PDC complex spheroid viability
Assay: Anticancer human tumor 388556-164-R-J1-PDC patient-derived colon adenocarcinoma cell line growth inhibition [RAS]
Settings: for IC50: curve of first compound; for viability, T/C: stronger effect = lower value
How it was run: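 Multi-cell-type spheroids: tumor cells plus HUVEC endothelial cells and mesenchymal stem cells. RAS-pathway inhibitors were combined with targeted agents, each dosed in half-log steps down from clinical Cmax, or from 10 microM when Cmax was unknown.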

[1] = second compound 0.000949 µM, first compound 0.0316 µM
[2] = second compound 0.000949 µM, first compound 0.1 µM
[3] = second compound 0.000949 µM, first compound 0.316 µM
[4] = second compound 0.000949 µM, first compound 1 µM
[5] = second compound 0.000949 µM, first compound 3.16 µM
[6] = second compound 0.000949 µM, first compound 10 µM
[7] = second compound 0.003 µM, first compound 0.0316 µM
[8] = second compound 0.003 µM, first compound 0.1 µM
[9] = second compound 0.003 µM, first compound 0.316 µM
[10] = second compound 0.003 µM, first compound 1 µM
[11] = second compound 0.003 µM, first compound 3.16 µM
[12] = second compound 0.003 µM, first compound 10 µM
[13] = second compound 0.00949 µM, first compound 0.0316 µM
[14] = second compound 0.00949 µM, first compound 0.1 µM
[15] = second compound 0.00949 µM, first compound 0.316 µM
[16] = second compound 0.00949 µM, first compound 1 µM
[17] = second compound 0.00949 µM, first compound 3.16 µM
[18] = second compound 0.00949 µM, first compound 10 µM
[19] = second compound 0.03 µM, first compound 0.0316 µM
[20] = second compound 0.03 µM, first compound 0.1 µM
[21] = second compound 0.03 µM, first compound 0.316 µM
[22] = second compound 0.03 µM, first compound 1 µM
[23] = second compound 0.03 µM, first compound 3.16 µM
[24] = second compound 0.03 µM, first compound 10 µM
[25] = second compound 0.0949 µM, first compound 0.0316 µM
[26] = second compound 0.0949 µM, first compound 0.1 µM
[27] = second compound 0.0949 µM, first compound 0.316 µM
[28] = second compound 0.0949 µM, first compound 1 µM
[29] = second compound 0.0949 µM, first compound 3.16 µM
[30] = second compound 0.0949 µM, first compound 10 µM
[31] = second compound 0.3 µM, first compound 0.0316 µM
[32] = second compound 0.3 µM, first compound 0.1 µM
[33] = second compound 0.3 µM, first compound 0.316 µM
[34] = second compound 0.3 µM, first compound 1 µM
[35] = second compound 0.3 µM, first compound 3.16 µM
[36] = second compound 0.3 µM, first compound 10 µM
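Also: spheroids exposed to compound for 7 days before readout.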
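For viability, T/C in this document: 100% = DMSO vehicle control luminescence.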

SMILES: CC1(O)CCCC1n1c(=O)c(C(F)F)cc2cnc(NC3CCN(S(C)(=O)=O)CC3)nc21 (centres undefined) + CCn1c(-c2cc(N3CCN(C)CC3)cnc2C(C)OC)c2c3cc(ccc31)-c1csc(n1)CC(NC(=O)C1CC1C)C(=O)N1CCCC(N1)C(=O)OCC(C)(C)C2
- IC50 (second compound 0.000949 µM): > 10000 nM
- IC50 (second compound 0.003 µM): > 10000 nM
- IC50 (second compound 0.00949 µM): 9450 nM
- IC50 (second compound 0.03 µM): > 10000 nM
- IC50 (second compound 0.0949 µM): < 31.6 nM
- IC50 (second compound 0.3 µM): < 31.6 nM
- viability, T/C [1]: 91.1%
- viability, T/C [2]: 94.2%
- viability, T/C [3]: 89.8%
- viability, T/C [4]: 91.6%
- viability, T/C [5]: 94.1%
- viability, T/C [6]: 61.7%
- viability, T/C [7]: 102%
- viability, T/C [8]: 91.7%
- viability, T/C [9]: 90%
- viability, T/C [10]: 78.7%
- viability, T/C [11]: 87.3%
- viability, T/C [12]: 62.8%
- viability, T/C [13]: 78.8%
- viability, T/C [14]: 75.4%
- viability, T/C [15]: 80.6%
- viability, T/C [16]: 77.9%
- viability, T/C [17]: 72.7%
- viability, T/C [18]: 48.8%
- viability, T/C [19]: 62.6%
- viability, T/C [20]: 58.5%
- viability, T/C [21]: 64.9%
- viability, T/C [22]: 59.4%
- viability, T/C [23]: 66%
- viability, T/C [24]: 44.2%
- viability, T/C [25]: 46.7%
- viability, T/C [26]: 44%
- viability, T/C [27]: 47.3%
- viability, T/C [28]: 42.4%
- viability, T/C [29]: 45.7%
- viability, T/C [30]: 35.1%
- viability, T/C [31]: 31.2%
- viability, T/C [32]: 37%
- viability, T/C [33]: 33.4%
- viability, T/C [34]: 38.8%
- viability, T/C [35]: 38.1%
- viability, T/C [36]: 24.1%

SMILES: CCC(CC)c1cc(NC2CCC(N)C2)n2nccc2n1 (centres undefined) + CCn1c(-c2cc(N3CCN(C)CC3)cnc2C(C)OC)c2c3cc(ccc31)-c1csc(n1)CC(NC(=O)C1CC1C)C(=O)N1CCCC(N1)C(=O)OCC(C)(C)C2
- IC50 (second compound 0.000949 µM): 1850 nM
- IC50 (second compound 0.003 µM): 1810 nM
- IC50 (second compound 0.00949 µM): 1420 nM
- IC50 (second compound 0.03 µM): 1050 nM
- IC50 (second compound 0.0949 µM): < 31.6 nM
- IC50 (second compound 0.3 µM): < 31.6 nM
- viability, T/C [1]: 84.5%
- viability, T/C [2]: 104%
- viability, T/C [3]: 93.3%
- viability, T/C [4]: 90.6%
- viability, T/C [5]: 14.7%
- viability, T/C [6]: 10.2%
- viability, T/C [7]: 89.6%
- viability, T/C [8]: 85.2%
- viability, T/C [9]: 79.3%
- viability, T/C [10]: 81.1%
- viability, T/C [11]: 20.5%
- viability, T/C [12]: 9.94%
- viability, T/C [13]: 82.7%
- viability, T/C [14]: 77.2%
- viability, T/C [15]: 73.7%
- viability, T/C [16]: 65.1%
- viability, T/C [17]: 15.4%
- viability, T/C [18]: 11.8%
- viability, T/C [19]: 56.5%
- viability, T/C [20]: 66.5%
- viability, T/C [21]: 57.9%
- viability, T/C [22]: 51.7%
- viability, T/C [23]: 10%
- viability, T/C [24]: 11.5%
- viability, T/C [25]: 40.5%
- viability, T/C [26]: 47%
- viability, T/C [27]: 47%
- viability, T/C [28]: 38.4%
- viability, T/C [29]: 9.16%
- viability, T/C [30]: 11.8%
- viability, T/C [31]: 28.7%
- viability, T/C [32]: 32.5%
- viability, T/C [33]: 32.4%
- viability, T/C [34]: 27.8%
- viability, T/C [35]: 5.58%
- viability, T/C [36]: 11%
